Experiments:
Matrilysin = target: T1, Matrilysin (Homo sapiens, UniProt P09237)
T1 sequence (P09237 whole entry): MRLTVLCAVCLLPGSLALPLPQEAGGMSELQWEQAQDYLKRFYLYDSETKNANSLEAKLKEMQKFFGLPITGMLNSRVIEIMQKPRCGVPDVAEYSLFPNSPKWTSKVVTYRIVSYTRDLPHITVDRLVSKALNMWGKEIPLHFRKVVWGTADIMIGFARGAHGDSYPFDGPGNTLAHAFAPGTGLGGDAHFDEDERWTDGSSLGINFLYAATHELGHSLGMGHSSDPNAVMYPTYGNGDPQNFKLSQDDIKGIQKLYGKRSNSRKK

[1] = target: Disintegrin and metalloproteinase domain-containing protein 33 (Homo sapiens, UniProt Q9BZ11); test: Inhibition of ADAM33
[2] = target: Matrix metalloproteinase-9 (Homo sapiens, UniProt P14780); test: Inhibition of MMP9
Stromelysin-1 = Stromelysin-1 (Homo sapiens, UniProt P08254)
[3] = target: Disintegrin and metalloproteinase domain-containing protein 9 (Homo sapiens, UniProt Q13443)
Interstitial collagenase = target: T2, Interstitial collagenase (Homo sapiens, UniProt P03956)
T2 sequence (P03956 whole entry): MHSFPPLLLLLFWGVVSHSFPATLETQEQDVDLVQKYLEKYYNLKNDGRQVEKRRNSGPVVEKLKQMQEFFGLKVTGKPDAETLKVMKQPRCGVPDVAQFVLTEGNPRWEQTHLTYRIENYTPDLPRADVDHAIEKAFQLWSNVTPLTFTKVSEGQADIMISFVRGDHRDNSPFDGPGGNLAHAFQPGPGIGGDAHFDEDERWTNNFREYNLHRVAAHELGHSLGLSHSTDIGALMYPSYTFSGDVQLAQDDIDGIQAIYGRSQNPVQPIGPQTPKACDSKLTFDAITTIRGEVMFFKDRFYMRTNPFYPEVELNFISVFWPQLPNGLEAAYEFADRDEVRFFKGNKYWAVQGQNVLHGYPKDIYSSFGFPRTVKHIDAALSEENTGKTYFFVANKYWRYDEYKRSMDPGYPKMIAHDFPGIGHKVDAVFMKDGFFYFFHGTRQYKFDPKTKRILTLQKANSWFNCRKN

[4] = target: 72 kDa type IV collagenase (Homo sapiens, UniProt P08253)
[5] = target: Bone morphogenetic protein 1 (Homo sapiens, UniProt P13497); test: Inhibition of BMP1
Collagenase 3 = Collagenase 3 (Homo sapiens, UniProt P45452); test: Inhibition of MMP13
[6] = target: Matrix metalloproteinase-14 (Homo sapiens, UniProt P50281); test: Inhibition of MMP14
[7] = target: Macrophage metalloelastase (Homo sapiens, UniProt P39900); test: Inhibition of MMP12
[8] = target: Matrix metalloproteinase-16 (Homo sapiens, UniProt P51512); test: Inhibition of MMP16
[9] = Selectivity for pig TACE over MMP7
[10] = target: Matrix metalloproteinase-15 (Homo sapiens, UniProt P51511)
Stromelysin-2 = Stromelysin-2 (Homo sapiens, UniProt P09238); test: Inhibition of MMP10
[11] = Selectivity for pig TACE over MMP9
Neutrophil collagenase = Neutrophil collagenase (Homo sapiens, UniProt P22894); test: Inhibition of MMP8
[12] = Selectivity for pig TACE over MMP2
[13] = Selectivity for pig TACE over MMP1
[14] = Selectivity for pig TACE over MMP8
[15] = Selectivity for pig TACE over MMP3
Neprilysin = Neprilysin (Homo sapiens, UniProt P08473); test: Inhibition of NEP
[16] = target: Angiotensin-converting enzyme (Homo sapiens, UniProt P12821); test: Inhibition of ACE
[17] = target: Disintegrin and metalloproteinase domain-containing protein 17 (Homo sapiens, UniProt P78536); test: Inhibition of TACE
Stromelysin-3 = Stromelysin-3 (Homo sapiens, UniProt P24347); test: Inhibition of MMP11
[18] = target: T3, Disintegrin and metalloproteinase domain-containing protein 10 (Homo sapiens, UniProt O14672); test: Inhibition of ADAM10
T3 sequence (O14672 whole entry): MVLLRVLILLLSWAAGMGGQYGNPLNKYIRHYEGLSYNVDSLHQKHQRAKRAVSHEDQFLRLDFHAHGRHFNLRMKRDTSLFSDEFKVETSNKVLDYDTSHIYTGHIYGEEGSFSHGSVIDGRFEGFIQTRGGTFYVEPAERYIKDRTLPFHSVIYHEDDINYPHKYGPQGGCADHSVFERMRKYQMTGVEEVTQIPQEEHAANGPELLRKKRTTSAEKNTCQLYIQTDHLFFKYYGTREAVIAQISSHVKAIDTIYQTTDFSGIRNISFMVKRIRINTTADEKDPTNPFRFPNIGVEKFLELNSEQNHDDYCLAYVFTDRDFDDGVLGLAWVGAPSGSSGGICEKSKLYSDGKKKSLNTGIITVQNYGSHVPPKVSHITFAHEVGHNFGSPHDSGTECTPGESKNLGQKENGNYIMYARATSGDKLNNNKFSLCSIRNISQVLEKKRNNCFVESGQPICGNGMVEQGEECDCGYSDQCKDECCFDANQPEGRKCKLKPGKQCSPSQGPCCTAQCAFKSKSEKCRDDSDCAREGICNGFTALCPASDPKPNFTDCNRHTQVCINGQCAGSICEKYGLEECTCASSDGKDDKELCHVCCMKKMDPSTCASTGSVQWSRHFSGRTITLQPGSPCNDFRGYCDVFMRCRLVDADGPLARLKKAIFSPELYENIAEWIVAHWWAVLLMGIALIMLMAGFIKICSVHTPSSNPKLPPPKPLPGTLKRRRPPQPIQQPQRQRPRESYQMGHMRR

[19] = target: A disintegrin and metalloproteinase with thrombospondin motifs 5 (Homo sapiens, UniProt Q9UNA0); test: Inhibition of ADAMTS5
[20] = target: Disintegrin and metalloproteinase domain-containing protein 17 (Sus scrofa, UniProt O77636); test: Inhibition of pig TACE
[21] = target: A disintegrin and metalloproteinase with thrombospondin motifs 1 (Homo sapiens, UniProt Q9UHI8); test: Inhibition of ADAMTS1

Sequence of Matrix metalloproteinase-9 (P14780 whole entry): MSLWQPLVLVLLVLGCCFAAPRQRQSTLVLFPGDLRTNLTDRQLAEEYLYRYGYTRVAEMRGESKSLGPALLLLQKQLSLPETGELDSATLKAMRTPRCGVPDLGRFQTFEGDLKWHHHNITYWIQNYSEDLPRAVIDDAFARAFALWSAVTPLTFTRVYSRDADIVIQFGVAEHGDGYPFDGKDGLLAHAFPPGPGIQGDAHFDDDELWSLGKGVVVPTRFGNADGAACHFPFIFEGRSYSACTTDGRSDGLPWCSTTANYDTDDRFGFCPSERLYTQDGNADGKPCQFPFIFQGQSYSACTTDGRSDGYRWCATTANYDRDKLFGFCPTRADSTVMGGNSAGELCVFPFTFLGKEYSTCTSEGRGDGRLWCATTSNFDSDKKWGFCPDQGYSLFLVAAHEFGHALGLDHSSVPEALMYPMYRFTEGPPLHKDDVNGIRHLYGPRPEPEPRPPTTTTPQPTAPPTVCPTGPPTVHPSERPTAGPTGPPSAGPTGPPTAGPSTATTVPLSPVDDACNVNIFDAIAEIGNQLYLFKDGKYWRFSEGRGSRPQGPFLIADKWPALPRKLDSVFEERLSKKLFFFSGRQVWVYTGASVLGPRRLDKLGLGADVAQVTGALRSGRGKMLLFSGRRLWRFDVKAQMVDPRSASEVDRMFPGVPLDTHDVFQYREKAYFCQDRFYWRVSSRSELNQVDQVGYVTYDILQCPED
Sequence of Stromelysin-1 (P08254 whole entry, the tested form may be a part): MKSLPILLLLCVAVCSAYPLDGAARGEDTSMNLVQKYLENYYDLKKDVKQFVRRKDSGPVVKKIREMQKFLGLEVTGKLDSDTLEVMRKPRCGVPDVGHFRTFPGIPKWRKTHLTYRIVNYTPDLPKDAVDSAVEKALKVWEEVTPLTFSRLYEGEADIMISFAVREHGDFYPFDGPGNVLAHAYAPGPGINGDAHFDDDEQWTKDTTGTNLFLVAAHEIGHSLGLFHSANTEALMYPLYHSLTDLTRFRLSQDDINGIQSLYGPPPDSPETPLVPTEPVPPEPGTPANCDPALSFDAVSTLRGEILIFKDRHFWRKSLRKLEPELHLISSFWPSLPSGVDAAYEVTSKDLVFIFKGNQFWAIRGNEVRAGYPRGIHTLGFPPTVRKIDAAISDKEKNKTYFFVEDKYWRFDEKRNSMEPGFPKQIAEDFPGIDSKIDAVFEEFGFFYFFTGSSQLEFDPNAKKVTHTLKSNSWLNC
Sequence of 72 kDa type IV collagenase (P08253 whole entry): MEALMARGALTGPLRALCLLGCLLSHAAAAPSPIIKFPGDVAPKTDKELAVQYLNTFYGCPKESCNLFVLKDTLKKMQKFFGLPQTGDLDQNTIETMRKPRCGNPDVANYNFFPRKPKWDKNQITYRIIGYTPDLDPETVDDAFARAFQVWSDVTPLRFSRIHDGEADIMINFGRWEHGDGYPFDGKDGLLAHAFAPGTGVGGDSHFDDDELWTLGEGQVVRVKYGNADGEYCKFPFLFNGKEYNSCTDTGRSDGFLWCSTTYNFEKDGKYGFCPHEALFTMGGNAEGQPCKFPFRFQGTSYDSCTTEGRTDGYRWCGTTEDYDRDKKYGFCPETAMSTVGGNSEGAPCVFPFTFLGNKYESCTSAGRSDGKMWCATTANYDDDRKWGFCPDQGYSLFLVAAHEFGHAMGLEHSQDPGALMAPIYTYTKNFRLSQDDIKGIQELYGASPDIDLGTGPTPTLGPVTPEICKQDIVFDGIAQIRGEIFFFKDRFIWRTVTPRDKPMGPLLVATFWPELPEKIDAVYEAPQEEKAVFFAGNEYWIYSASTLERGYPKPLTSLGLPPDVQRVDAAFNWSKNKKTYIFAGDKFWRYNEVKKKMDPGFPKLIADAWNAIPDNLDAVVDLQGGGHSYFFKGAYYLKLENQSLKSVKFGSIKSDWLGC
Sequence of Neutrophil collagenase (P22894 whole entry): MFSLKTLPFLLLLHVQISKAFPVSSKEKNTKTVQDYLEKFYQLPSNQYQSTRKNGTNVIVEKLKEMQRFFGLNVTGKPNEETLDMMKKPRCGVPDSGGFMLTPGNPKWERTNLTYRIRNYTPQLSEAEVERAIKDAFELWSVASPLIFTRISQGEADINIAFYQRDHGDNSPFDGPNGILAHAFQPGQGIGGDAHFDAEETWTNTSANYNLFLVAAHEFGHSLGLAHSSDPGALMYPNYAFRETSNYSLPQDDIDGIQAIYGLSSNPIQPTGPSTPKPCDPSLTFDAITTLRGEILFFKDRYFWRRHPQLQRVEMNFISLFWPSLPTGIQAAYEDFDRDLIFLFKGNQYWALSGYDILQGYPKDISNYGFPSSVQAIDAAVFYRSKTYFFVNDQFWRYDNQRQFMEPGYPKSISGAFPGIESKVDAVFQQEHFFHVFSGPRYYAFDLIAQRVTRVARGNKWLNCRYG
Sequence of Stromelysin-2 (P09238 whole entry): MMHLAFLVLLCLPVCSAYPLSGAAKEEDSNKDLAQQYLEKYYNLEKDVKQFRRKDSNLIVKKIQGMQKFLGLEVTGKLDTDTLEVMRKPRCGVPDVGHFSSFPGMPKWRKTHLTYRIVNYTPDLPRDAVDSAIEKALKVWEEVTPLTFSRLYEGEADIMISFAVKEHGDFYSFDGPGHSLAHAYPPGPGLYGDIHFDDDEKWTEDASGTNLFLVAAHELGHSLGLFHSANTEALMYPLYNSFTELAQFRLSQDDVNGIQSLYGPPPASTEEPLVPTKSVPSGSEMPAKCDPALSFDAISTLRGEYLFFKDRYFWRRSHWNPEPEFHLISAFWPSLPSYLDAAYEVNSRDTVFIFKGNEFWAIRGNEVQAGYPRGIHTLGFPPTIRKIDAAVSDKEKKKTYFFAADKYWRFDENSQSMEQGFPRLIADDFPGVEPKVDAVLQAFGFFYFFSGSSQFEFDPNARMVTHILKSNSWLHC
Sequence of Matrix metalloproteinase-15 (P51511 whole entry): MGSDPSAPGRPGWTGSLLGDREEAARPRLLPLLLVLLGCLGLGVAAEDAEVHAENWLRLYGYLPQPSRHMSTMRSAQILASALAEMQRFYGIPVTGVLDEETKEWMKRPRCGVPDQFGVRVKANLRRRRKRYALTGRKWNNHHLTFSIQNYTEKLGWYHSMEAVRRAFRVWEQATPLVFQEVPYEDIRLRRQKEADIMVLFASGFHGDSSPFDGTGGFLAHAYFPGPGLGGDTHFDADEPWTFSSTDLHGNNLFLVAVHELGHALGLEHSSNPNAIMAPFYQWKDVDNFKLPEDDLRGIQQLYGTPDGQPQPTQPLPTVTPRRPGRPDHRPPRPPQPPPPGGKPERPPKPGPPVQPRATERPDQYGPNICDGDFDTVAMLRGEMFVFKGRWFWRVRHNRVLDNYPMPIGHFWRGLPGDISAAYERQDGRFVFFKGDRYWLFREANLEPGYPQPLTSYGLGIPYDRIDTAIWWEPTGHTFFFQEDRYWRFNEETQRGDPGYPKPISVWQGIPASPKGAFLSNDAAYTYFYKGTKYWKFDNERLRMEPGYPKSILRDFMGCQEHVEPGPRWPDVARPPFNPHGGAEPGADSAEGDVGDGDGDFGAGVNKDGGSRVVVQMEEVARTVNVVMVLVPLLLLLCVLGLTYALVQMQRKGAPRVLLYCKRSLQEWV
Sequence of Macrophage metalloelastase (P39900 whole entry): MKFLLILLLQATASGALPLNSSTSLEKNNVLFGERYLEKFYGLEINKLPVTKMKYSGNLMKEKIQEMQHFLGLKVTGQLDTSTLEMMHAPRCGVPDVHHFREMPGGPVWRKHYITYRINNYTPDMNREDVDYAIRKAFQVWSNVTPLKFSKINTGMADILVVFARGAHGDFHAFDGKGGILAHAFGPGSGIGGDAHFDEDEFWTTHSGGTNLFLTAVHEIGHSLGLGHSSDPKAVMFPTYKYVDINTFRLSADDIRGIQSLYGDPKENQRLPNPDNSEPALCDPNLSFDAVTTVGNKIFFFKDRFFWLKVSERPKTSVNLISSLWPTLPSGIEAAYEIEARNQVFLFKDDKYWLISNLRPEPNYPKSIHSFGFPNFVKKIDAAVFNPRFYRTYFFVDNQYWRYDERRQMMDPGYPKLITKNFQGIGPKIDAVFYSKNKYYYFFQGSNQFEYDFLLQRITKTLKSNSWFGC
Sequence of Disintegrin and metalloproteinase domain-containing protein 33 (Q9BZ11 whole entry, the tested form may be a part): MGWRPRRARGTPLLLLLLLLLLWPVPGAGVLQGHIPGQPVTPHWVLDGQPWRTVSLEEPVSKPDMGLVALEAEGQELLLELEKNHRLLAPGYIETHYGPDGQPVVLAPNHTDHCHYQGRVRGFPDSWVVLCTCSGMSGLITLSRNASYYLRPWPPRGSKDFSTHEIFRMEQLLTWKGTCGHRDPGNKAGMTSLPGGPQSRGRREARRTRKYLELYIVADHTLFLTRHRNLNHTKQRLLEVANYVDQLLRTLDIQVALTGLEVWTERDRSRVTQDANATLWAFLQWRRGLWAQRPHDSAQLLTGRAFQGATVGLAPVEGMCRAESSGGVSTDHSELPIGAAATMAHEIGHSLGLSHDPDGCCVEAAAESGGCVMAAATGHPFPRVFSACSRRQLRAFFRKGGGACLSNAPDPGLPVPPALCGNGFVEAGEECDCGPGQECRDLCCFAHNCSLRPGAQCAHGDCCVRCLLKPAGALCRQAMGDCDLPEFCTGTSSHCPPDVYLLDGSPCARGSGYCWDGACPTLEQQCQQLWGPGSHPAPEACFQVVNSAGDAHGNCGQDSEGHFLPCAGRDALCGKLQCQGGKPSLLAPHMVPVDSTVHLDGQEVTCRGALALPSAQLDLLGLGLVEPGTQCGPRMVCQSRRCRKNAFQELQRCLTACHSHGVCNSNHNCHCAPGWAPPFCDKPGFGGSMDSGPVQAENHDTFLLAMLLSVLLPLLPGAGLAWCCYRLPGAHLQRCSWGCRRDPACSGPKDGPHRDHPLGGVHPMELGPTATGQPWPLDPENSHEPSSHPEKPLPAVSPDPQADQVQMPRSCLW

| SMILES | Ki (Collagenase 3) [nM] | Ki [2] [nM] | Ki [6] [nM] | Ki (Stromelysin-1) [nM] | Ki (Interstitial collagenase) [nM] | Ki [10] [nM] | Ki (Stromelysin-2) [nM] | Ki (Neutrophil collagenase) [nM] | Ki [4] [nM] | Ki [7] [nM] | also measured |
| --- | --- | --- | --- | --- | --- | --- | --- | --- | --- | --- | --- |
| COC(=O)N1CC2(CC2)C[C@H](C(=O)NO)[C@H]1C(=O)N1CC=C(c2ccccc2)CC1 |  |  |  |  |  |  |  |  |  |  | IC50 (Matrilysin): > 5000 nM; IC50 [1]: 1030 nM; IC50 [2]: 304 nM; IC50 (Stromelysin-1): 3560 nM; IC50 [3]: > 5000 nM; IC50 (Interstitial collagenase): > 5000 nM; IC50 [4]: 35 nM |
| Cc1cc(COc2ccc([C@]3(C)CCN([C@H](C)C(=O)NO)C3=O)cc2)c2ccccc2n1 |  |  |  |  |  |  |  |  |  |  | Ki [1]: 15 nM; IC50 (tissue or blood): 0.35 nM |
| O=C1NCCCC[C@@H](C(=O)NCC(=O)N2CCOCC2)NC(=O)[C@H](Cc2ccc(-c3ccccc3C(F)(F)F)cc2)[C@@H](C(=O)NO)CCCO1 |  | > 2000 | > 2000 | > 2000 | > 2000 | > 2000 | > 2000 | 200 | > 2000 | > 2000 | Ki [8]: > 2000 nM; fold change (FC) [9]: > 100; fold change (FC) [11]: > 100; fold change (FC) [12]: > 100; fold change (FC) [13]: > 100; fold change (FC) [14]: 45; fold change (FC) [15]: > 100 |
| NC(=O)[C@H](CCC(=O)O)NC(=O)[C@H](CCC(=O)O)NC(=O)[C@H](Cc1cc(-c2ccc(-c3cccc(Cl)c3)cc2)no1)CP(=O)(O)c1ccc(Br)cc1 | 49 | 1260 | 140 | 40 | 67000 |  |  | 271 | 192 | 0.19 | Ki (Matrilysin): 626 nM; Ki (Neprilysin): > 100000 nM; Ki [16]: > 100000 nM; Ki [17]: > 100000 nM; Ki (Stromelysin-3): 18400 nM |

Further lines, with some results ahead:

| Ki (Collagenase 3) [nM] | Ki [2] [nM] | Ki [6] [nM] | Ki (Stromelysin-1) [nM] | Ki (Interstitial collagenase) [nM] | Ki [10] [nM] | Ki (Stromelysin-2) [nM] | Ki (Neutrophil collagenase) [nM] | Ki [4] [nM] | SMILES | Ki [7] [nM] | also measured |
| --- | --- | --- | --- | --- | --- | --- | --- | --- | --- | --- | --- |
| 91000 | > 100000 | > 100000 | > 100000 | 1 |  |  |  |  | CS(=O)(=O)NCc1noc([C@H](CCCC2CCCCC2)CC(=O)NO)n1 |  | Ki [5]: 11 nM |
| > 5000 | > 3000 | 163 | 762 | > 5000 | 1700 | 1650 | 2050 | > 3000 | Cc1cc(COc2ccc(C(=O)N[C@@]3(CC(=O)NO)C[C@@H](C)N[C@@H](C)C3)cc2)c2ccccc2n1 |  | Ki [18]: > 3000 nM; Ki [19]: 1900 nM; Ki [20]: 2.8 nM; Ki [21]: 7800 nM |

Reference: ChEMBL document CHEMBL1141723, “Specific targeting of metzincin family members with small-molecule inhibitors: progress toward a multifarious challenge” (Bioorg Med Chem, 2008)
